The source of these data is patent US6756480B2, “Modulators of receptors for parathyroid hormone and parathyroid hormone-related protein” (Amgen Inc., priority 2000, dated 2004).

Where two headings read alike, the source gives them in different places. No end group written: not given here.

The subject of series [1] is mice. In words: Mouse bioassay: SC injection days 0, 5, 10; clinical chemistry (calcium, AP, TRAP) and tibial pQCT. It counts as in vivo. Particulars: for serum TRAP (osteoclast marker) / calcemic potency among the 3 Fc peptides: mice; for serum TRAP (osteoclast marker): after single SC injection; for calcemic potency among the 3 Fc peptides: serum calcium. On the procedure:
Peripheral blood was obtained daily for 3 days following single subcutaneous injections of the indicated compounds.
Peripheral quantitative computed tomography (pQCT) was performed on the proximal tibial metaphysis of mice on day 15, after injections of PTH constructs on day 0, 5 and 10.
We then tested the effects of PTH-(1-34), PTH-(1-34)-Fc, PTH-(1-31)-Fc and PTH-(1-30)-Fc in mice. Four week old male mice were injected on days 0, 5, and 10 with vehicle or with PTH fragments, by SC injection. Peripheral blood was obtained for clinical chemistry at 24, 48, and 72 h. Mice were killed on day 15, vertebrae, tibiae and femurs were harvested for histology and one tibia was collected for bone density measurements (peripheral quantitative computed tomography, pQCT). Clinical chemistry endpoints included total serum calcium, serum alkaline phosphatase (AP, a marker of osteoblast activity), and serum tartrate-resistant acid phosphatase (TRAP, a marker of osteoclast activity). For each animal, the ratio of AP:TRAP was calculated as an index of relative osteoblast activity compared to osteoclast activity. A higher AP:TRAP ratio would indicate a potentially more anabolic agent.

For series [2] the following is noted: in vivo, circulating; cited from earlier work.
Series [3] deals with aged ovariectomized (OVX) rats. In words: Monotherapy in aged ovariectomized (OVX) rats: twice-weekly treatment, BMD by DEXA and serum calcium. It counts as in vivo. On the procedure: Eleven months after OVX, rats were treated twice per week with phosphate-buffered saline (PBS, vehicle) or with APD (0.5 mg/kg) or with PTH-(1-34)-Fc (50 nmol/kg). DEXA was performed weekly. Blood was drawn 24 hours after the second weekly injection, when the calcemic effects of PTH-Fc are typically maximal. The effects of PTH-Fc administration on lumbar BMD (FIG. 11A), tibia/femur BMD (FIG. 11B), femoral metaphysis BMD (FIG. 11C), and serum calcium (FIG. 11D) were determined.
Sprague Dawley rats were OVX'd at 3 months of age and allowed to lose bone for 11 months. Other rats were sham-operated and treated twice per week with vehicle (PBS). OVX rats were treated twice per week with SC injections of either vehicle or the bisphosphonate APD (pamidronate, 0.5 mg/kg), or with PTH-(1-34)-Fc (50 nmol/kg) or with APD+PTH-(1-34)-Fc. BMD was determined weekly via dual energy X-ray absorptiometry (DEXA). Rats were sacrificed after 4 weeks of treatment. At the start of treatment, OVX rats had significant reductions in BMD at all skeletal sites analyzed, compared to vehicle-treated […] (FIG. 11, p<0.05, 2-way ANOVA).

In series [4] the test system is OVX rats. As to conditions: cited from earlier work.
The subject of series [5] is healthy humans. Particulars: infusion, unlike PTH-(1-34); cited from earlier work.
The target of series [6] is T1, PTH-1 receptor (Homo sapiens, UniProt Q03431).
T1 sequence (Q03431 27-593): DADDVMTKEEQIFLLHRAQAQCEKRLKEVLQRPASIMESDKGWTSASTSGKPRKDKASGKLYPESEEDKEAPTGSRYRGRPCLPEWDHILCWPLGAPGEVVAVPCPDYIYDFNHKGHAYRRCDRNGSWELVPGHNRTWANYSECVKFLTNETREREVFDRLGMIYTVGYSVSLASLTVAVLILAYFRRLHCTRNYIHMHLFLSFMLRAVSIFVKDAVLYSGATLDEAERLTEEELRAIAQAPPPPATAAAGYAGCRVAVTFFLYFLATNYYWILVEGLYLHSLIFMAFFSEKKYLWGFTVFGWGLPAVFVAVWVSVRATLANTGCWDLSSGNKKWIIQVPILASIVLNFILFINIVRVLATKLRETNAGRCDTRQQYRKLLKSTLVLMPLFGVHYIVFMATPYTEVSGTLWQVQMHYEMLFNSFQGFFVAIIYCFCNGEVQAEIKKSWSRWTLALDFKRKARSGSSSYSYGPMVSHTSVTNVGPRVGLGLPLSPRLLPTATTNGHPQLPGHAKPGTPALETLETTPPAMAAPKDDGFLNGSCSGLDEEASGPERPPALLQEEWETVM
Particulars: cited from earlier work.

For series [7], the system named is mice. Kind of series: Acute hypercalcemia induced by PTHrP-(1-34) challenge, antagonist given SC, blood ionized calcium. As to conditions: 0.5 mg/kg SC, vehicle-treated mice. It is filed as in vivo. Here is the method:
Normal male mice were injected SC with vehicle (PBS, circles) or with human PTHrP-(1-34) at 0.5 mg/kg (squares). PTHrP-challenged mice were then immediately injected SC with [Asn10,Leu11]PTHrP-(7-34)-Fc at 10 mg/kg (triangles) or 30 mg/kg (diamonds). Data represent group means, with an n of 6 mice/group.
We have cloned, expressed and purified [Asn10,Leu11]PTHrP-(7-34)-Fc. We tested the ability of this compound to antagonize both acute and chronic hypercalcemia responses in mice. PTHrP-(1-34) was used as a calcemic agent to evaluate the acute effects of [Asn10,Leu11]PTHrP-(7-34)-Fc. Because PTHrP is the principal mediator of HHM, this study also represents a model for hypercalcemia-inducing tumors. Briefly, blood ionized calcium (BIC) was measured at baseline, and mice were then challenged with vehicle (PBS) or with PTHrP-(1-34) (0.5 mg/kg) by SC injection. Mice were then treated once SC with varying doses of [Asn10,Leu11]PTHrP-(7-34)-Fc, or with vehicle (PBS). In vehicle-treated mice challenged with PTHrP-(1-34), a transient hypercalcemic response was observed. The peak calcemic response occurred at 3 h post challenge, and persisted until at least 6 h post challenge.

Series [8] addresses T2, rat PTH-1 receptor (Rattus norvegicus, UniProt P25961).
T2 sequence (P25961 27-591): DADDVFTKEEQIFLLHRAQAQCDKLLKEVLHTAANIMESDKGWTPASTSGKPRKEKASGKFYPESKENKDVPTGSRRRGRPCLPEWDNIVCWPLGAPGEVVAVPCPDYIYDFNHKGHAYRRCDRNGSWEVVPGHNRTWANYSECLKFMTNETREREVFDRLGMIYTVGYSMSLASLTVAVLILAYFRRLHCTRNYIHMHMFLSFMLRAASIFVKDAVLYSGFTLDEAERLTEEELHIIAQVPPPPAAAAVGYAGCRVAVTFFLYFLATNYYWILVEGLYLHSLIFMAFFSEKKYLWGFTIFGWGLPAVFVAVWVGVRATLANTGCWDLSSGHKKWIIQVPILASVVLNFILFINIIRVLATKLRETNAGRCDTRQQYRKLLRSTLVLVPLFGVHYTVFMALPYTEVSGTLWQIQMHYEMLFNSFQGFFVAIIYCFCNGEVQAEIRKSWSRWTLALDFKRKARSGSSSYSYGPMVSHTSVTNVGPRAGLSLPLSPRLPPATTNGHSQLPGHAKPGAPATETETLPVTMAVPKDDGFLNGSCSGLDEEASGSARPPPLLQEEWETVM
As to conditions: cited from earlier work.

The mark [9] stands for this setting: 100 nmoles/kg on day 0, 5, 10, pQCT day 15.

With “PTH-(1-30)-Fc: PTH (1-30), SVSEIQLMHNLGKHLNSMERVEWLRKKLQD, linked at its C-terminus to an Fc domain (SVSEIQLMHNLGKHLNSMERVEWLRKKLQD-{Fc domain})”, the serum calcium result in series [1] (100 nmoles/kg) is on record as “failed to significantly increase serum calcium”. In addition, the “bone mineral density (proximal tibial metaphysis)” value (“bone mineral density” below) in series [1] (setting [9]) is recorded as “greatest effect”. For the same compound, in series [1] (1,000 nmoles/kg), the “serum AP (osteoblast marker)” value was “greatest elevation” and the “time of peak serum AP after injection” value is given as 72 h. Moreover, the “bone mineral density” value in series [1] (1,000 nmoles/kg on day 0, 5, 10, pQCT day 15) is “least effect”. For the same compound, the BMD versus controls result in series [1] (all doses (100-1,000 nmoles/kg), pQCT day 15) was “greater than in controls”. Further, in series [1] (high dose 1,000 nmoles/kg), the “calculated AP:TRAP ratio” value is recorded as “greatest increase”. Also, in series [1], the “serum TRAP (osteoclast marker)” value is given as “not significantly changed” and the “calcemic potency among the 3 Fc peptides” value was “least calcemic”. Moreover, the “increase in bone density compared with the other PTH constructs” value in series [1] (pQCT day 15) was “greatest increase in bone density”.
In the case of Parathyroid hormone [PTH], the half-life entry in series [2] is given as “less than 1 h”.
With `NCCC(O)(P(=O)(O)O)P(=O)(O)O` [APD, pamidronate, reference compound], the “BMD at any skeletal site compared to vehicle-treated OVX rats” value in series [3] (0.5 mg/kg twice per week) was “did not significantly increase BMD”. Besides, in series [3] (APD 0.5 mg/kg co-administered), the “effect of co-administration on calcemic effect of PTH-(1-34)-Fc” value is reported as “completely blocked the calcemic effect”.
For the compound “human PTH(1-28) (SVSEIQLMHNLGKHLNSMERVEWLRKKL; listed as Homo sapiens) [PTH-(1-28)]”, the anabolic effect result in series [4] (200 μg/kg/day) is on record as “ineffective”; in series [4] (1,000 μg/kg/day), “anabolic”.
human PTH(1-31) [hPTH-(1-31)]: the “serum calcium, plasma 1,25(OH)2D3, urinary N-TX levels” value in series [5] is listed as “failed to elevate”. In addition, in series [6], the “reduction of affinity for PTH-1 receptor compared to hPTH-(1-34)” value is on record as 1-6 fold.
With human PTHrP(1-34) [PTHrP-(1-34)], in series [7], the “persistence of calcemic response post challenge” value is recorded as “at least 6 h” and the “time of peak calcemic response post challenge” value is 3 h.
Take “PTH-(1-31)-Fc: PTH (1-31), SVSEIQLMHNLGKHLNSMERVEWLRKKLQDV, linked at its C-terminus to an Fc domain”: the “bone mineral density” value in series [1] (setting [9]) was “no effect”. The “serum AP (osteoblast marker)” value in series [1] (300 nmoles/kg (given for PTH-(1-34)-Fc), 72 h) was “significantly elevated”. The “calculated AP:TRAP ratio” value in series [1] (high dose 1,000 nmoles/kg) is recorded as “decreased”. In series [1] (higher doses 300-1,000 nmoles/kg), the toxicity entry is “significant hypercalcemia-related toxicity”. Further, the “calculated AP:TRAP ratio” value in series [1] (low dose 100 nmoles/kg) is “increased”. In series [1], the “serum TRAP (osteoclast marker)” value is “dramatically increased” and the “calcemic potency among the 3 Fc peptides” value was “more potent calcemic agent”.
In the case of “human PTH(1-30) (SVSEIQLMHNLGKHLNSMERVEWLRKKLQD; listed as Homo sapiens) [hPTH-(1-30)]”, the “reduction of affinity for PTH-1 receptor compared to hPTH-(1-34)” value in series [6] is given as 10-100 fold. The PLC activation result in series [8] was “weak and incomplete agonist”.
